{"source": "patent US20060160721A1", "about": "“Method of plasma lipidation to prevent, inhibit and/or reverse atherosclerosis” (BAYLOR COLLEGE OF MEDICINE, priority 2004, published 2006)", "assay": "Lipoprotein cholesterophilicity: cholesterol partitioning between lipoproteins and 2-hydroxypropyl-cyclodextrin (CDX)", "assay_type": "binding", "details": "isolated LDL and HDL enriched with POPC by DP", "description": "Control samples were prepared without detergent or POPC. The samples were dialyzed as described above. […] The samples were incubated for three hours and transferred to Microcon ultracentrifugal filters with an exclusion limit of 30 kDa and centrifuged for 10 min at 12,000 rpm in an Eppendorf microfuge. Aliquots of the retentate and filtrate were analyzed for cholesterol, protein, and phospholipid. The partition coefficient Kp for the distribution of cholesterol between TLP and CDX was calculated from Kp={FCBound×[[…]} Equation 1 where TLPPro is the initial TLP-protein concentration (mg/mL), […], and FCBound, respectively are the free cholesterol concentrations in the retentate, filtrate, and bound to TLP with FCBound calculated as […].", "data": [{"smiles": "CCCCCCCC/C=C\\CCCCCCCC(=O)O[C@H](COC(=O)CCCCCCCCCCCCCCC)COP(=O)([O-])OCC[N+](C)(C)C", "note": "[POPC, 1-palmitoyl-2-oleoyl (PO) PC]", "values": [{"measurement": "effect of added POPC on the cholesterophilicities of LDL and HDL", "result": "dose-dependent increase"}]}]}
